How the values were obtained:
rabbit platelet PDE V = rabbit platelet PDE V (Oryctolagus cuniculus, UniProt G1SX67); test: inhibition of cGMP PDE V activity (PDE SPA assay kit, [3H]-cGMP); type: biochemical; details: in vitro, inhibitors of cGMP PDE V; rabbit platelet enzyme, 30° C., 30 min
Method: The rabbit platelet PDE V was prepared using the method described by Hidaka et al.(Biochim. Biophys. Acta., 429: 485-497, 1976) with minor modification. The platelet-rich plasma (PRP) was prepared by centrifugation of freshly obtained heparinized whole blood at 360 g. Platelets were isolated from the PRP by centrifugation at 1,200 g. Platelet homogenates were prepared in the homogenization buffer (50 mM Tris-HCl buffer containing 1 mM MgCl2, pH 7.4) by sonication for 30 s per 1 mL. The homogenized solutions were then centrifuged at 40,000×g for 2 h at 4° C. The supernatant was loaded on the DEAE-cellulose column (20 mL bed volume, Sigma) pre-equilibrated with equilibration buffer (50 mM Tris-acetate containing 3.75 mM 2-mercaptoethanol, pH 6.0).The column was then washed with 60 mL of equilibration buffer. The PDE isozymes were eluted using a continuous gradient of 0 to 600 mM sodium acetate in the equilibration buffer (60 mL total volume). The 1.0 mL fractions were collected. A flow rate of 60 mL/h was used throughout the ion-exchange chromatography procedure. PDE activities on cAMP and cGMP were characterized as described below. The characterized fractions were pooled and stored at −80 ° C. until the inhibition studies
The cyclic nucleotide PDE V activity was determined using PDE SPA assay kit (Amersham Pharmacia biotech, UK).Each reaction mixture (100 μL total volume) consisted of the column elute containing PDE V (10 μL), [^3H]-cGMP (5 μCi/mL), bovine serum albumin (0.5 mg/mL), and MgCl2 (5 mM) in Tris-HCl buffer (15 mM, pH 7.5).The reactions were initiated by the addition of PDE V and the samples were incubated at 30° C. for 30 min, after which the reaction was stopped by the addition of 50 μL of SPA beads. The reaction tube was then settled for 20 min and was counted on the scintillation counter (Tri-carb 1500, Packard, USA). For the inhibition study of PDE V activity, the test compounds were dissolved in dimethyl sulfoxide (DMSO) and was diluted with distilled water. The final concentration of DMSO was less than 0.2% (v/v).All the inhibition experiments were conducted tinder the conditions where the level of cGMP hydrolysis (lid not exceed 15%, and the product formation increased linearly with time and the amount of enzyme.
The following Table illustrates the in vitro activities for a range of the compounds of the invention as inhibitors of cGMP PDE V.

Question: With CCCc1cn(C)c2c(=O)[nH]c(-c3cc(S(=O)(=O)N4CCC(CCC(=O)O)CC4)ccc3OCC)nc12 [Example 123, 52-(2-ethoxy-5-(4-(2-hydroxycarbonylethyl)piperidinylpiperidin-1-ylsulfonyl)phenyl)-15-methyl-37-n-propyl-1,63,5-dihydro-7H4H-pyrrolo[4,33,2-d]pyrimidin-74-one] as the compound, how does the IC50 (rabbit platelet PDE V) read?
Answer: 0.71 nM

Question: What about the melting point of the same compound?
Answer: 129 to 130.5 °C

Question: Which IC50 (rabbit platelet PDE V) does the source give for CCCOc1ccc(S(=O)(=O)N2CCN(CCO)CC2)cc1-c1nc2c(CCC)cn(C)c2c(=O)[nH]1 [Example 53, 52-(5-(4-(2-hydroxyethyl)piperazinylpiperazin-1-ylsulfonyl)-2-n-propoxyphenyl)-15-methyl-37-n-propyl-1,63,5-dihydro-7H4H-pyrrolo[4,33,2-d]pyrimidin-74-one] here?
Answer: 0.49 nM

Question: With CCCc1cn(C)c2c(=O)[nH]c(-c3cc(S(=O)(=O)N4CCN(CCCF)CC4)ccc3OCC)nc12 [Example 14, 52-(2-ethoxy-5-(4-(3-fluoropropyl)piperazinylpiperazin-1-ylsulfonyl)phenyl)-15-methyl-37-n-propyl-1,63,5-dihydro-7H4-pyrrolo[4,33,2-d]pyrimidin-74-one] as the compound, how does the IC50 (rabbit platelet PDE V) read?
Answer: 1.36 nM

Question: What about the melting point of the same compound?
Answer: 217.5 to 218 °C

Question: For CCCc1cn(C)c2c(=O)[nH]c(-c3cc(S(=O)(=O)N4CCN(CCO)CC4)ccc3OCC)nc12 [Example 51, 52-(2-ethoxy-5-(4-(2-hydroxyethyl)piperazinylpiperazin-1-ylsulfonyl)phenyl)-15-methyl-37-n-propyl-1,63,5-dihydro-7H4H-pyrrolo[4,33,2-d]pyrimidin-74-one], which IC50 (rabbit platelet PDE V) is on record?
Answer: 2.06 nM

Question: With CCCOc1ccc(S(=O)(=O)N2CCC(CCC(=O)O)CC2)cc1-c1nc2c(CCC)cn(C)c2c(=O)[nH]1 [Example 124, 52-(5-(4-(2-hydroxycarbonylethyl)piperidinylpiperidin-1-ylsulfonyl)-2-n-propoxyphenyl)-15-methyl-37-n-propyl-1,63,5-dihydro-7H4H-pyrrolo[4,33,2-d]pyrimidin-74-one] as the compound, how does the IC50 (rabbit platelet PDE V) read?
Answer: 0.27 nM

Question: What does the source list for CCOc1ccc(S(=O)(=O)N2CCN(CCCF)CC2)cc1-c1nc2c(CCCF)cn(CC)c2c(=O)[nH]1 [Example 26, 52-(2-ethoxy-5-(4-(3-fluoropropyl)piperazinylpiperazin-1-ylsulfonyl)phenyl)-15-ethyl-37(3-fluoropropyl)-1,63,5-dihydro-7H4H-pyrrolo-[4,33,2-d]pyrimidin-74-one]?
Answer: IC50 (rabbit platelet PDE V): 0.62 nM; melting point: 194 to 194.5 °C

Question: With CCCOc1ccc(S(=O)(=O)N2CCN(CCO)CC2)cc1-c1nc2c(CCCF)cn(CC)c2c(=O)[nH]1 [Example 30] as the compound, how does the IC50 (rabbit platelet PDE V) read?
Answer: 0.18 nM

Question: What about the melting point of the same compound?
Answer: 162 to 163 °C

Question: Which results are given for CCCc1cn(C)c2c(=O)[nH]c(-c3cc(S(=O)(=O)N4CCN(C)CC4)ccc3OCC)nc12 [Example 1, 52-(2-ethoxy-5-(4-methylpiperazinylpiperazin-1-ylsulfonyl)phenyl)-15-methyl-37-n-propyl-1,63,5-dihydro-7H4H-pyrrolo[4,33,2-d]pyrimidin-74-one]?
Answer: IC50 (rabbit platelet PDE V): 2.9 nM; melting point: 220.5 to 221 °C

Question: For CCCOc1ccc(S(=O)(=O)N2CCN(CCCF)CC2)cc1-c1nc2c(CCC)cn(C)c2c(=O)[nH]1 [Example 37, 52-(5-(4-(3-fluoropropyl)piperazinylpiperazin-1-ylsulfonyl)-2-n-propoxyphenyl)-15-methyl-37-n-propyl-1,63,5-dihydro-7H4H-pyrrolo[4,33,2-d]pyrimidin-74-one], which IC50 (rabbit platelet PDE V) is on record?
Answer: 0.64 nM

Question: Which results are given for CCOc1ccc(S(=O)(=O)N2CCN(CCCF)CC2)cc1-c1nc2c(CC)cn(CC)c2c(=O)[nH]1 [Example 18, 52-(2-ethoxy-5-(4-(3-fluoropropyl)piperazinylpiperazin-1-ylsulfonyl)phenyl)-15-ethyl-37-ethyl-1,63,5-dihydro-7H4H-pyrrolo[4,33,2-d]pyrimidin-74-one]?
Answer: IC50 (rabbit platelet PDE V): 2.23 nM; melting point: 182 to 182.5 °C

Question: For CCCOc1ccc(S(=O)(=O)N2CCN(CCO)CC2)cc1-c1nc2c(CCC)cn(CC)c2c(=O)[nH]1 [Example 31], which IC50 (rabbit platelet PDE V) is on record?
Answer: 0.33 nM

Question: With CCCOc1ccc(S(=O)(=O)N2CCN(C)CC2)cc1-c1nc2c(CCC)cn(C)c2c(=O)[nH]1 [Example 3, 52-(5-(4-methylpiperazinylpiperazin-1-ylsulfonyl)-2-n-propoxyphenyl)-15-methyl-37-n-propyl-1,63,5-dihydro-7H4H-pyrrolo[4,33,2-d]pyrimidin-74-one] as the compound, how does the IC50 (rabbit platelet PDE V) read?
Answer: 0.59 nM

Question: And the melting point?
Answer: 183 to 183.5 °C

— US20030171361A1, “Pyrrolopyrimidinone derivatives, process of preparation and use” (priority 2002, published 2003)
